# PMC6934184, “Selective DNA-PKcs inhibition extends the therapeutic index of localized radiotherapy and chemotherapy” (The Journal of Clinical Investigation, 2019)
# Target: T1, MAPKAPK5 (PRAK) (Homo sapiens, UniProt Q8IW41)
# T1 construct: purchased Thermo Fisher Scientific (Life Technologies) SelectScreen
# Experiment: SelectScreen Z'LYTE
# Format: biochemical
# Experimental: The in vitro kinase selectivity of NU5455 was determined using the SelectScreen Broad Assay Panel (Thermo Fisher Scientific) involving activity and binding assays (Supplemental Table 1). […] Class IA PI3Ks were measured using the p85α subunit.
# Kinase [ATP] % Assay Kinase [ATP] % Assay Kinase [ATP] % Assay Kinase [ATP] % Assay
# DNA-PK Km app 98.3 Z LATS2 n/a 4.7 L KIT D820E n/a 1.3 L GSK3B (GSK3 beta) Km app -2.5 Z
# PIK3C3 (hVPS34) Km app 85.9 A PRKCZ (PKC zeta) Km app 4.7 Z GRK1 n/a 1.3 L BMPR2 n/a -2.5 L
# PIK3C2B (PI3K-C2 beta) 10 28.9 A FGFR1 Km app 4.7 Z BRSK2 n/a 1.2 L CDC42 BPB (MRCKB) Km app -2.5 Z
# SNF1LK2 Km app 26.6 Z MINK1 Km app 4.6 Z NUAK1 (ARK5) Km app 1.2 A AMPK (A2/B2/G2) n/a -2.6 L
# HCK Km app 18.0 Z CSF1R (FMS) Km app 4.3 Z CDK9/cyclin K n/a 1.0 L PRKG1 Km app -2.7 Z
# NEK2 Km app 17.8 Z CSNK1G3 (CK1 gamma 3) Km app 4.2 Z NUAK2 n/a 1.0 L KIT T670E n/a -2.8 L
# ALK Km app 17.3 Z STK32C (YANK3) n/a 4.2 L CDK2/cyclin O n/a 0.9 L ERBB4 (HER4) Km app -2.8 Z
# FGFR3 K650M n/a 16.5 L STK22D (TSSK1) Km app 4.2 Z CAMKK2 (CaMKK beta) n/a 0.9 L PLK4 n/a -2.8 L
# SIK3 n/a 16.1 L TAOK3 (JIK) n/a 4.2 L FGFR3 Km app 0.9 Z GRK7 Km app -3.0 Z
# LYN A Km app 15.2 Z RPS6KA4 (MSK2) Km app 4.2 Z ULK2 n/a 0.9 L MAPKAPK2 Km app -3.1 Z
# BMPR1B (ALK6) n/a 14.5 L PTK2B (FAK2) Km app 4.2 Z KIT D816V n/a 0.9 L FGFR4 Km app -3.1 Z
# INSRR (IRR) Km app 14.1 Z CLK2 Km app 4.1 Z CAMK1 (CaMK1) 10 0.8 A CASK n/a -3.1 L
# PLK2 Km app 14.1 Z STK24 (MST3) Km app 4.1 Z PTK6 (Brk) Km app 0.7 Z GRK5 Km app -3.2 Z
# PRKACA (PKA) Km app 14.0 Z CAMK1D (CaMKI delta) Km app 4.1 Z CAMK2B (CaMKII beta) Km app 0.7 Z EGFR (ErbB1) T790M Km app -3.3 Z
# EIF2AK2 (PKR) n/a 13.3 L INSR Km app 4.1 Z ACVR1 (ALK2) n/a 0.7 L PAK4 Km app -3.3 Z
# PRKX Km app 12.5 Z IRAK1 Km app 4.0 A ABL1 H396P n/a 0.6 L DAPK3 (ZIPK) Km app -3.4 Z
# FGR Km app 12.1 Z SRC N1 Km app 3.9 Z MERTK (cMER) A708S n/a 0.6 L RET M918T n/a -3.5 L
# CLK1 Km app 11.7 Z SRPK2 Km app 3.9 Z MAPKAPK5 (PRAK) Km app 0.6 Z PRKCQ (PKC theta) Km app -3.7 Z
# MARK3 Km app 11.4 Z RPS6KA6 (RSK4) Km app 3.8 Z AKT1 (PKB alpha) Km app 0.5 Z CAMKK1 (CAMKKA) n/a -3.8 L
# PDGFRB (PDGFR beta) Km app 11.0 Z GRK6 Km app 3.7 Z NTRK3 (TRKC) Km app 0.4 Z FLT3 D835Y Km app -3.9 Z
# PRKCN (PKD3) Km app 10.7 Z PKN1 (PRK1) Km app 3.6 Z ZAP70 Km app 0.3 Z ROCK2 Km app -4.1 Z
# STK16 (PKL12) n/a 10.5 L MAP3K8 (COT) 100 3.5 Z CSNK1A1 (CK1 alpha 1) Km app 0.3 Z CHUK (IKK alpha) Km app -4.2 A
# FES (FPS) Km app 10.4 Z FLT4 (VEGFR3) Km app 3.5 Z MYLK (MLCK) n/a 0.2 L AXL Km app -4.2 Z
# ABL1 Km app 10.4 Z GRK4 Km app 3.5 Z MKNK2 (MNK2) n/a 0.2 L PIM2 Km app -4.3 Z
# MUSK Km app 10.3 Z FRK (PTK5) Km app 3.4 Z AMPK (A1/B1/G3) n/a 0.2 L PAK1 Km app -4.4 Z
# MAPK1 (ERK2) Km app 10.1 Z FYN A n/a 3.3 L MAP3K2 (MEKK2) n/a 0.1 L BMPR1A (ALK3) n/a -4.4 L
# BRAF 100 9.9 Z CDK1/cyclin A2 n/a 3.3 L CDK8/cyclin C n/a 0.1 L STK4 (MST1) Km app -4.4 Z
# IGF1R Km app 9.7 Z KIT V559D T670I n/a 3.1 L MARK2 Km app 0.1 Z PRKCH (PKC eta) Km app -4.6 Z
# MAPK14 (p38 alpha) Km app 9.7 Z SPHK2 10 3.1 A ICK n/a 0.0 L SGKL (SGK3) Km app -4.6 Z
# LCK Km app 9.6 Z FGFR3 G697C n/a 3.1 L FGFR2 Km app 0.0 Z PI4KB (PI4K beta) Km app -4.7 A
# MAPK11 (p38 beta) Km app 9.5 Z RIPK2 n/a 3.1 L AKT2 (PKB beta) Km app 0.0 Z PRKCE (PKC epsilon) Km app -4.9 Z
# SRC Km app 9.5 Z PAK6 Km app 3.0 Z EPHB2 Km app -0.1 Z PHKG1 Km app -5.0 Z
# CHEK1 (CHK1) Km app 9.3 Z LYN B Km app 3.0 Z TGFBR2 n/a -0.1 L PDGFRA D842V Km app -5.0 Z
# CAMK2D (CaMKII delta) Km app 9.3 Z DAPK2 n/a 2.9 L TEK (Tie2) Km app -0.1 Z PRKG2 (PKG2) Km app -5.1 Z
# PLK1 Km app 9.2 Z EPHA4 Km app 2.9 Z AURKA (Aurora A) Km app -0.1 Z TYRO3 (RSE) Km app -5.1 Z
# RET Y791F Km app 9.2 Z PIK3CG (p110 gamma) Km app 2.9 A KIT D816H n/a -0.2 L TAOK2 (TAO1) Km app -5.1 Z
# FLT3 Km app 9.1 Z HIPK1 (Myak) Km app 2.8 Z KIT N822K n/a -0.2 L EPHB4 Km app -5.3 Z
# MAPK10 (JNK3) 100 9.0 Z ADRBK2 (GRK3) Km app 2.8 Z PRKACG (PRKAC gamma) n/a -0.2 L AURKC (Aurora C) Km app -5.4 Z
# CSNK2A2 (CK2 alpha 2) Km app 8.7 Z STK17B (DRAK2) n/a 2.7 L TEK (TIE2) Y1108F n/a -0.3 L JAK1 Km app -5.7 Z […]
# T1 sequence (Q8IW41 whole entry): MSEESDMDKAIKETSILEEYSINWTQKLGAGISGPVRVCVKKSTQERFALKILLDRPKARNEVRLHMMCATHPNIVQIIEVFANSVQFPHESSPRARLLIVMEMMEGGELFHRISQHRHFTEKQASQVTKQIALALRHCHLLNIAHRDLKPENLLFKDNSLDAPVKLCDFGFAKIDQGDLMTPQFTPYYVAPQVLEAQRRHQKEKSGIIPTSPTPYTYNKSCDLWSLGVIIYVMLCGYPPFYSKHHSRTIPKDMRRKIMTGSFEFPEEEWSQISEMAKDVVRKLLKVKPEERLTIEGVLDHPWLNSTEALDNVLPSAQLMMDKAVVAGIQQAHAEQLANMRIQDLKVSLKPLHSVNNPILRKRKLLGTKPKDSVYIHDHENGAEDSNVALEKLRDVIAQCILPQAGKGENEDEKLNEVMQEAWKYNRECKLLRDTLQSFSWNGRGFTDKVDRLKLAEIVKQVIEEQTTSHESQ
smiles,measurement,value
CN(C(=O)CN1CCOCC1)c1ccc2sc3c(-c4cccc5c(=O)cc(N6CC7CCC(C6)O7)oc45)cccc3c2c1 [NU5455],inhibition at 1 µM,0.6%
